{"source": "patent US20260062422A1", "about": "(Halda Therapeutics OpCo, Inc., priority 2022, published 2026)", "key": {"[1]": {"system": "T47D cells", "test": "Cellular growth inhibition assay for T47D cells, CellTiter-Glo", "assay_type": "cell-based, human", "settings": "Homo sapiens, T47D, 72 h, 72 hours treatment, CellTiter-Glo 2.0 cell viability", "procedure,_shortened": "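Luminescence from CellTiter-Glo 2.0 after 72 h of compound exposure gives the viability signal. Cells grew in insulin-supplemented (0.2 units/mL) DMEM with 10% FBS and were treated one day after seeding at 0.5% DMSO. GI50 values come from four-parameter nonlinear regression.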"}, "[2]": {"system": "VCaP cells", "test": "Cellular growth inhibition assay for VCaP cells, CellTiter-Glo", "assay_type": "cell-based, human", "settings": "Homo sapiens, VCaP, 72 h, 72 hours treatment, CellTiter-Glo 2.0", "procedure,_shortened": "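GI50 values come from four-parameter curve fits of luminescence data normalized to a zero baseline. Compound, in medium with 0.5% DMSO, was added one day after plating and left for 72 h before CellTiter-Glo 2.0 addition.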"}, "[3]": {"system": "T-Rex 293 cell line SC3 cells lacking increased expression of androgen receptor protein", "test": "Cellular growth inhibition, T-Rex 293 SC3 cells without doxycycline, CellTiter-Glo", "assay_type": "cell-based", "settings": "72 h, T-Rex 293 SC3 cells not exposed to doxycycline, CellTiter-Glo 2.0", "procedure,_shortened": "(§1)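 Luminescence read-out (CellTiter-Glo 2.0) after 72 h compound exposure; GI50 by four-parameter nonlinear regression, baseline set at zero luminescence. SC3 cells, a doxycycline-inducible wild-type AR clone of T-Rex 293, were cultured ±10 ng/mL doxycycline in charcoal-dextran FBS medium.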"}, "[4]": {"system": "T-Rex 293 cell line SC3 cells having increased expression of androgen receptor protein due to exposure to doxycycline", "test": "Cellular growth inhibition, T-Rex 293 SC3 cells with doxycycline (androgen receptor induced), CellTiter-Glo", "assay_type": "cell-based", "settings": "72 h, T-Rex 293 SC3 cells with 10 ng/mL doxycycline (increased androgen receptor expression)", "procedure,_shortened": "as §1"}}}
{"compound": "Cc1sc2c(c1C)C(c1ccc(N3CCC[C@H](C(=O)N4CCC[C@H](c5ncc(C(=O)N[C@H]6C(C)(C)[C@H](Oc7ccc(C#N)c(Cl)c7)C6(C)C)cn5)C4)C3)cc1)=N[C@H](Cc1ncco1)c1nnc(C)n1-2", "note": "[Compound I-338]", "values": [{"measurement": "GI50", "setting": "[1]", "value": "> 3000", "unit": "nM"}, {"measurement": "GI50", "setting": "[2]", "value": "> 3000", "unit": "nM"}, {"measurement": "GI50", "setting": "[3]", "value": "> 3000", "unit": "nM"}, {"measurement": "GI50", "setting": "[4]", "value": "> 3000", "unit": "nM"}]}
{"compound": "Cc1sc2c(c1C)C(c1ccc(N3CCC[C@H](C(=O)N4CCC[C@@H](c5ncc(C(=O)N[C@H]6C(C)(C)[C@H](Oc7ccc(C#N)c(Cl)c7)C6(C)C)cn5)C4)C3)cc1)=N[C@H](Cc1ncco1)c1nnc(C)n1-2", "note": "[Compound I-339]", "values": [{"measurement": "GI50", "setting": "[1]", "value": "> 3000", "unit": "nM"}, {"measurement": "GI50", "setting": "[2]", "value": "> 3000", "unit": "nM"}, {"measurement": "GI50", "setting": "[3]", "value": "> 3000", "unit": "nM"}, {"measurement": "GI50", "setting": "[4]", "value": "> 3000", "unit": "nM"}]}
{"compound": "Cc1sc2c(c1C)C(c1ccc(N3CCN(C(=O)c4ncc(C(=O)N[C@H]5C(C)(C)[C@H](Oc6ccc(C#N)c(Cl)c6)C5(C)C)cn4)CC3)cc1)=N[C@@H](Cc1ncco1)c1nnc(C)n1-2", "note": "[Compound I-340]", "values": [{"measurement": "GI50", "setting": "[1]", "value": "1500 to 3000", "unit": "nM"}, {"measurement": "GI50", "setting": "[2]", "value": "> 3000", "unit": "nM"}, {"measurement": "GI50", "setting": "[3]", "value": "> 3000", "unit": "nM"}, {"measurement": "GI50", "setting": "[4]", "value": "> 3000", "unit": "nM"}]}
{"compound": "Cc1sc2c(c1C)C(c1ccc(N3CCN(C(=O)c4ncc(C(=O)N[C@H]5C(C)(C)[C@H](Oc6ccc(C#N)c(Cl)c6)C5(C)C)cn4)CC3)cc1)=N[C@H](Cc1ncco1)c1nnc(C)n1-2", "note": "[Compound I-341]", "values": [{"measurement": "GI50", "setting": "[1]", "value": "500 to 1500", "unit": "nM"}, {"measurement": "GI50", "setting": "[2]", "value": "< 500", "unit": "nM"}, {"measurement": "GI50", "setting": "[3]", "value": "500 to 1500", "unit": "nM"}, {"measurement": "GI50", "setting": "[4]", "value": "500 to 1500", "unit": "nM"}]}
{"compound": "Cc1sc2c(c1C)C(c1ccc(C(=O)N(C)CCCc3ncc(C(=O)N[C@H]4C(C)(C)[C@H](Oc5ccc(C#N)c(Cl)c5)C4(C)C)cn3)cc1)=N[C@@H](Cc1ncco1)c1nnc(C)n1-2", "note": "[Compound I-342]", "values": [{"measurement": "GI50", "setting": "[1]", "value": "> 3000", "unit": "nM"}, {"measurement": "GI50", "setting": "[2]", "value": "> 3000", "unit": "nM"}, {"measurement": "GI50", "setting": "[3]", "value": "> 3000", "unit": "nM"}, {"measurement": "GI50", "setting": "[4]", "value": "> 3000", "unit": "nM"}]}
{"compound": "Cc1sc2c(c1C)C(c1ccc(C(=O)N(C)CCCc3ncc(C(=O)N[C@H]4C(C)(C)[C@H](Oc5ccc(C#N)c(Cl)c5)C4(C)C)cn3)cc1)=N[C@H](Cc1ncco1)c1nnc(C)n1-2", "note": "[Compound I-343]", "values": [{"measurement": "GI50", "setting": "[1]", "value": "1500 to 3000", "unit": "nM"}, {"measurement": "GI50", "setting": "[2]", "value": "1500 to 3000", "unit": "nM"}, {"measurement": "GI50", "setting": "[3]", "value": "> 3000", "unit": "nM"}, {"measurement": "GI50", "setting": "[4]", "value": "1500 to 3000", "unit": "nM"}]}
{"compound": "Cc1sc2c(c1C)C(c1ccc(C(=O)N3CCC[C@@H](C(=O)c4ncc(C(=O)N[C@H]5C(C)(C)[C@H](Oc6ccc(C#N)c(Cl)c6)C5(C)C)cn4)C3)cc1)=N[C@@H](Cc1ncco1)c1nnc(C)n1-2", "note": "[Compound I-344]", "values": [{"measurement": "GI50", "setting": "[1]", "value": "500 to 1500", "unit": "nM"}, {"measurement": "GI50", "setting": "[2]", "value": "500 to 1500", "unit": "nM"}, {"measurement": "GI50", "setting": "[3]", "value": "> 3000", "unit": "nM"}, {"measurement": "GI50", "setting": "[4]", "value": "> 3000", "unit": "nM"}]}
{"compound": "Cc1sc2c(c1C)C(c1ccc(C(=O)N3CCC[C@H](C(=O)c4ncc(C(=O)N[C@H]5C(C)(C)[C@H](Oc6ccc(C#N)c(Cl)c6)C5(C)C)cn4)C3)cc1)=N[C@@H](Cc1ncco1)c1nnc(C)n1-2", "note": "[Compound I-345]", "values": [{"measurement": "GI50", "setting": "[1]", "value": "1500 to 3000", "unit": "nM"}, {"measurement": "GI50", "setting": "[2]", "value": "> 3000", "unit": "nM"}, {"measurement": "GI50", "setting": "[3]", "value": "> 3000", "unit": "nM"}, {"measurement": "GI50", "setting": "[4]", "value": "> 3000", "unit": "nM"}]}
{"compound": "Cc1sc2c(c1C)C(c1ccc(C(=O)N3CCCC(C(=O)c4ncc(C(=O)N[C@H]5C(C)(C)[C@H](Oc6ccc(C#N)c(Cl)c6)C5(C)C)cn4)C3)cc1)=N[C@H](Cc1ncco1)c1nnc(C)n1-2", "note": "(stereo partly drawn) [Compound I-346]", "values": [{"measurement": "GI50", "setting": "[1]", "value": "> 3000", "unit": "nM"}, {"measurement": "GI50", "setting": "[2]", "value": "500 to 1500", "unit": "nM"}, {"measurement": "GI50", "setting": "[3]", "value": "> 3000", "unit": "nM"}, {"measurement": "GI50", "setting": "[4]", "value": "< 500", "unit": "nM"}]}
{"compound": "Cc1sc2c(c1C)C(c1ccc(COC3CCN(c4ncc(C(=O)N[C@H]5C(C)(C)[C@H](Oc6ccc(C#N)c(Cl)c6)C5(C)C)cn4)CC3)cc1)=N[C@@H](C)c1nnc(C)n1-2", "note": "[Compound I-347]", "values": [{"measurement": "GI50", "setting": "[1]", "value": "> 3000", "unit": "nM"}, {"measurement": "GI50", "setting": "[2]", "value": "> 3000", "unit": "nM"}, {"measurement": "GI50", "setting": "[3]", "value": "> 3000", "unit": "nM"}, {"measurement": "GI50", "setting": "[4]", "value": "> 3000", "unit": "nM"}]}
{"compound": "Cc1sc2c(c1C)C(c1ccc(CCCN3CC4(C3)CN(c3ncc(C(=O)N[C@H]5C(C)(C)[C@H](Oc6ccc(C#N)c(Cl)c6)C5(C)C)cn3)C4)cc1)=N[C@@H](C)c1nnc(C)n1-2", "note": "[Compound I-348]", "values": [{"measurement": "GI50", "setting": "[1]", "value": "< 500", "unit": "nM"}, {"measurement": "GI50", "setting": "[2]", "value": "< 500", "unit": "nM"}, {"measurement": "GI50", "setting": "[3]", "value": "1500 to 3000", "unit": "nM"}, {"measurement": "GI50", "setting": "[4]", "value": "< 500", "unit": "nM"}]}
{"compound": "Cc1sc2c(c1C)C(c1ccc(C#CC3CC4(C3)CN(c3ncc(C(=O)N[C@H]5C(C)(C)[C@H](Oc6ccc(C#N)c(Cl)c6)C5(C)C)cn3)C4)cc1)=N[C@@H](C)c1nnc(C)n1-2", "note": "[Compound I-349]", "values": [{"measurement": "GI50", "setting": "[1]", "value": "< 500", "unit": "nM"}, {"measurement": "GI50", "setting": "[2]", "value": "< 500", "unit": "nM"}, {"measurement": "GI50", "setting": "[3]", "value": "< 500", "unit": "nM"}, {"measurement": "GI50", "setting": "[4]", "value": "< 500", "unit": "nM"}]}
